# Measurements reported in ChEMBL document CHEMBL1129583, “Nonclassical 2,4-diamino-8-deazafolate analogues as inhibitors of dihydrofolate reductases from rat liver, Pneumocystis carinii, and Toxoplasma gondii” (J Med Chem, 1996).
# Experiments:
# Pneumocystis carinii = experiment: Ratio of inhibitory concentration of rat liver and Pneumocystis carinii DHFR.
# Dihydrofolate reductase = target: T1, Dihydrofolate reductase (Rattus norvegicus, UniProt Q920D2)
# T1 sequence (Q920D2 whole entry): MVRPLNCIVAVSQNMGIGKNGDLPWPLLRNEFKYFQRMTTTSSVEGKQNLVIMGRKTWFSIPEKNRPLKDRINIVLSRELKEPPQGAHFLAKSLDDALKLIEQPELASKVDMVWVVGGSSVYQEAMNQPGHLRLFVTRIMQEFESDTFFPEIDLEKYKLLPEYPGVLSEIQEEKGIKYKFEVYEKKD
# Description: Inhibitory activity against rat liver dihydrofolate reductase.
# [1] = target: T2, Bifunctional dihydrofolate reductase-thymidylate synthase (Toxoplasma gondii, UniProt Q07422)
# T2 sequence (Q07422 whole entry): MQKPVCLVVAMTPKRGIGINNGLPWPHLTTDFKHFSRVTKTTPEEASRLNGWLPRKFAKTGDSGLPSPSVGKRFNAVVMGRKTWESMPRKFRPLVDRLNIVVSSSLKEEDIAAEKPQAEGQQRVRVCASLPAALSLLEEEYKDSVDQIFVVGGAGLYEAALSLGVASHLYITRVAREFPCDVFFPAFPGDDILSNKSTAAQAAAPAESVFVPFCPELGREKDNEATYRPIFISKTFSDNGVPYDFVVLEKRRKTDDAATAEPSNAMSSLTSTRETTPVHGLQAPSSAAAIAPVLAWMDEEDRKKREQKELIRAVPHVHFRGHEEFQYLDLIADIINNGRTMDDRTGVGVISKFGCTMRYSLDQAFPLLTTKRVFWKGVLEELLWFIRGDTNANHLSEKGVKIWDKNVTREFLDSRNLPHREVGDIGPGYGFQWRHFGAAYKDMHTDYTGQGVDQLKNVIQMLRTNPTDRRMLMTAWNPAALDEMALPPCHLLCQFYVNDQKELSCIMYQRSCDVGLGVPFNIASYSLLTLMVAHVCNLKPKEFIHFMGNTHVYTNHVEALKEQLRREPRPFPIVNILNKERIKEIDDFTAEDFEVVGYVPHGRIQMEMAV
# Description: Inhibitory activity against Toxoplasma gondii dihydrofolate reductase.
# [2] = Ratio of inhibitory concentration of Rat liver and Toxoplasma gondii DHFR
# [3] = Ratio of inhibitory concentration of Rat liver and Pneumocystis carinii DHFR
# [4] = pRatio of inhibitory concentration of Rat liver and Pneumocystis carinii DHFR
Selectivity (Pneumocystis carinii),IC50 (Dihydrofolate reductase) [nM],Selectivity [3],Selectivity [4],Compound,IC50 [1] [nM],Selectivity [2]
0.15,260,–,–,Nc1nc(N)c2nc(CNc3ccccc3)ccc2n1,85,–
0.06,280,–,–,COc1ccc(OC)c(NCc2ccc3nc(N)nc(N)c3n2)c1,120,–
0.36,35,–,–,COc1cccc(N(C)Cc2ccc3nc(N)nc(N)c3n2)c1,15,–
0.13,54,–,–,Nc1nc(N)c2nc(CNc3ccc(Cl)c(Cl)c3)ccc2n1,57,–
–,210,0.13,–,Nc1nc(N)c2nc(CNc3ccc4ccccc4c3)ccc2n1,160,1.31
0.07,44,–,–,Nc1nc(N)c2nc(CNc3cc(Cl)c(Cl)c(Cl)c3)ccc2n1,87,–
0.2,–,–,–,COc1cc(N(C)Cc2ccc3nc(N)nc(N)c3n2)cc(OC)c1OC,–,–
0.93,520,–,–,COc1ccc(SCc2cnc3nc(N)nc(N)c3c2C)cc1,63,–
0.24,120,–,–,COc1ccccc1N(C)Cc1ccc2nc(N)nc(N)c2n1,26,–
0.45,17,–,–,CN(Cc1ccc2nc(N)nc(N)c2n1)c1ccc(Cl)c(Cl)c1,27,–
0.032,–,–,–,CN(Cc1ccc2nc(N)nc(N)c2n1)c1cccc(Cl)c1,–,–
0.01,2.5,–,–,CC(=O)c1ccc(NCc2ccc3nc(N)nc(N)c3n2)cc1,27,–
25.9,246000,–,–,Nc1nc(N)c2nc(CSc3ccccc3)cnc2n1,770,–
0.1,200,–,–,COc1cc(NCc2ccc3nc(N)nc(N)c3n2)cc(OC)c1OC,40,–
0.1,16,–,–,COc1ccc(N(C)Cc2ccc3nc(N)nc(N)c3n2)c(OC)c1,14,–
0.07,140,–,–,Nc1nc(N)c2nc(CNc3cccc(Cl)c3)ccc2n1,130,–
0.06,7.5,–,–,C#CCN(Cc1ccc2nc(N)nc(N)c2n1)c1ccc(C(=O)C(F)(F)F)cc1,54,–
0.09,73,–,–,COc1ccc(NCc2ccc3nc(N)nc(N)c3n2)cc1,54,–
0.31,47,–,–,CN(Cc1ccc2nc(N)nc(N)c2n1)c1cc(Cl)ccc1Cl,25,–
0.13,200,–,–,Nc1nc(N)c2nc(CNc3cc(Cl)ccc3Cl)ccc2n1,91,–
0.04,5.1,–,–,CC(=O)c1ccc(N(C)Cc2ccc3nc(N)nc(N)c3n2)cc1,15,–

Selectivity (Pneumocystis carinii),IC50 (Dihydrofolate reductase) [nM],Selectivity [3],Selectivity [4],Compound,IC50 [1] [nM],Selectivity [2]
0.12,88,–,–,Nc1nc(N)c2nc(CNc3ccc(Cl)cc3Cl)ccc2n1,50,–
0.24,50,–,–,COc1ccc(OC)c(N(C)Cc2ccc3nc(N)nc(N)c3n2)c1,25,–
0.02,2.7,–,–,COc1ccc(N(C)Cc2ccc3nc(N)nc(N)c3n2)cc1OC,9.8,–
0.28,48,–,–,CN(Cc1ccc2nc(N)nc(N)c2n1)c1c(Cl)cccc1Cl,30,–
–,82,–,0.082,Nc1nc(N)c2nc(CNc3c(Cl)cccc3Cl)ccc2n1,28,–
0.43,52,–,–,CN(Cc1ccc2nc(N)nc(N)c2n1)c1c(Cl)cc(Cl)cc1Cl,44,–
0.07,60,–,–,COc1ccc(NCc2ccc3nc(N)nc(N)c3n2)cc1OC,90,–
0.29,570,–,–,Nc1nc(N)c2nc(CNc3c(Cl)cc(Cl)cc3Cl)ccc2n1,46,–
0.35,87,–,–,CN(Cc1ccc2nc(N)nc(N)c2n1)c1cc(Cl)c(Cl)c(Cl)c1,38,–
0.13,32,–,–,CN(Cc1ccc2nc(N)nc(N)c2n1)c1ccc(C(=O)C(F)(F)F)cc1,46,–
–,40,0.17,–,Nc1nc(N)c2nc(CNc3cccc4ccccc34)ccc2n1,26,1.54
0.57,120,–,–,CN(Cc1ccc2nc(N)nc(N)c2n1)c1ccccc1Cl,15,–
0.12,200,–,–,COc1cccc(NCc2ccc3nc(N)nc(N)c3n2)c1,100,–
0.06,320,–,–,COc1ccc(NCc2ccc3nc(N)nc(N)c3n2)c(OC)c1,140,–
0.07,15,–,–,C#CCN(Cc1ccc2nc(N)nc(N)c2n1)c1ccc(C(C)=O)cc1,20,–
0.26,140,–,–,Nc1nc(N)c2nc(CNc3ccccc3Cl)ccc2n1,110,–
0.08,24,–,–,CN(Cc1ccc2nc(N)nc(N)c2n1)c1ccccc1,8.4,–
0.12,58,–,–,CN(Cc1ccc2nc(N)nc(N)c2n1)c1ccc(Cl)cc1Cl,50,–
0.16,420,–,–,COc1ccccc1NCc1ccc2nc(N)nc(N)c2n1,120,–
0.072,18,–,–,COc1ccc(N(C)Cc2ccc3nc(N)nc(N)c3n2)cc1,16,–

Compound,Selectivity (Pneumocystis carinii),IC50 (Dihydrofolate reductase) [nM],Selectivity [3],Selectivity [4],IC50 [1] [nM],Selectivity [2]
Nc1nc(N)c2nc(CSc3ccc4ccccc4c3)ccc2n1,0.23,86,–,–,48,–
CN(Cc1ccc2nc(N)nc(N)c2n1)c1cccc2ccccc12,0.18,7.3,–,–,18,–
Nc1nc(N)c2nc(CSc3ccccc3)ccc2n1,0.26,520,–,–,130,–
CN(Cc1ccc2nc(N)nc(N)c2n1)c1ccc2ccccc2c1,0.14,7.2,–,–,16,–
Nc1nc(N)c2nc(CSc3cccc4ccccc34)ccc2n1,0.34,160,–,–,49,–
